Source: article PMC7366380, “Discovery of a Potent and Selective Covalent Inhibitor and Activity-Based Probe for the Deubiquitylating Enzyme UCHL1, with Antifibrotic Activity” (Journal of the American Chemical Society, 2020)
Values joined by “and” are separate entries in the source; they are usually repeats but may differ in a detail not shown here. Equal entries are not always repeated.

Molecular target: T1, UCHL3 (Homo sapiens, UniProt P15374)
T1 sequence (P15374 1-230): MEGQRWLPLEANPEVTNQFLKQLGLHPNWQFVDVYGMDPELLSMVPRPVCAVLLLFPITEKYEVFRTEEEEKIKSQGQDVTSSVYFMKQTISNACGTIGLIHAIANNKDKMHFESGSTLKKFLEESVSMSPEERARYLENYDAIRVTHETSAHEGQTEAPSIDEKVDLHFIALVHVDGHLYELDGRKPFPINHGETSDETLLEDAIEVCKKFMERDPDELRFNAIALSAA
Assay: Quantitative chemical proteomic profiling of ABP 2 in HEK293 cells: UCHL3
Conditions: for Log2 reporter intensity values (Log2FC, DMSO substract): UCHL3, listed as ABP 2

C#Cc1cnc2[nH]cc(-c3cccc4c3CCN4C(=O)[C@@H]3CCCN3C#N)c2c1 [Compound 2]
UCHL3 enrichment (chemical proteomics) (HEK293, higher concentrations): marginal enrichment
Log2 reporter intensity values (Log2FC, DMSO substract) (2 nM, 60 min, replicates A-C): 0.05364 and -0.07312 and 0.4093
Log2 reporter intensity values (Log2FC, DMSO substract) (20 nM, 10 min, replicates B,C): 0.1568 and 0.3164
Log2 reporter intensity values (Log2FC, DMSO substract) (20 nM, 60 min, replicates A-C): 0.5413 and 1.009 and 0.8836
Log2 reporter intensity values (Log2FC, DMSO substract) (20 nM, 180 min, replicates A-C): 1.082 and 1.256 and 0.9512
Log2 reporter intensity values (Log2FC, DMSO substract) (200 nM, 10 min, replicates B,C): 0.8647 and 0.7273
Log2 reporter intensity values (Log2FC, DMSO substract) (200 nM, 60 min, replicates A-C): 1.566 and 2.128 and 1.659
Log2 reporter intensity values (Log2FC, DMSO substract) (200 nM, 180 min, replicates A,C): 2.355 and 2.225
